Like-named read-outs stand apart in the source and are kept apart here. Marks after values point to notes of the source that are not given here.
Key:
[1] = molecular target: GluN1/GluN2D NMDARs (Rattus norvegicus, UniProt P35439+Q62645); assay: Two-electrode voltage-clamp recordings, Xenopus laevis oocytes expressing GluN1/GluN2D; type: cell-based; settings: for Emax: read-out: Maximal Degree of Modulation (% of control)
Experimental: cDNAs for rat wild type NMDAR subunits GluN1-1a (GenBank U11418, U08261; hereafter GluN1 or GluN1a), GluN1-1b (U08263, hereafter GluN1b), GluN2A (D13211), GluN2B (U11419), Glu[…]), and Glu[…], modified as described in [Monyer et al., 1994]) were provided by Drs. S. Heinemann (Salk Institute), S. Nakanishi (Kyoto University), and P. Seeburg (University of Heidelberg). Site-directed mutagenesis was conducted using the QuikChange kit (Agilent Technologies, Santa Clara, CA) following the recommended protocol. DNA sequencing was used to verify all mutations. The amino acid numbering system started with the initiating methionine as residue number one. For expression in Xenopus laevis oocytes, cDNA constructs were linearized by restriction enzymes, and subsequently used to synthesize in vitro cRNAs following the manufacturer's protocol (mMessage mMachine, Ambion, ThermoFisher Scientific, Waltham, MA). […] All extracellular solutions were made from a solution containing (in mM) 90 NaCl, 1 KCl, 10 HEPES, 0.5 BaCl2, 0.01 EDTA (pH 7.4 with NaOH). Experiments were performed using an eight port Modular Valve Positioner (Hamilton Company, Reno, NV) and controlled by custom software (Easy Oocyte, Emory University, Atlanta, GA)to exchange solutions. Oocyte currents were recorded at a holding potential of -40 mV using a two-electrode voltage-clamp amplifier (OC-725B or OC-725C, Warner Instruments, Hamden, CT). […] Measurements are given as mean ± SEM unless otherwise indicated. […] EC50 and IC50 values and confidence intervals reported were calculated by averaging the log(EC50) or log(IC50) value, determining confidence intervals for mean log(EC50) or log(IC50), and converting back to units of molarity. Statistical significance evaluations (α set to 0.05) were performed using a one-way ANOVA with Dunnett's multiple comparison test, a paired t-test, or other appropriate tests as described.

[2] = Racemization time course of enantiomers in working solution (functional assessment); type: physicochemical; settings: standard experimental (aqueous working) solution
Description: The enantiomers of EU1794-27 were separated to determine whether the racemic activity reflected the actions of only one enantiomer (see Supplemental methods). (-)-EU1794-27 potentiated NMDAR responses similarly to the racemic mixture (Figure 8—figure supplement 1A, Table 7). […] We previously reported ([Katzman et al., 2015]) that purified enantiomers were likely to racemize in aqueous solutions, which should proceed by a first-order reaction dependent on multiple factors such as ionic strength, pH, buffer, etc. ([Smith et al., 1978]). Thus, to quantitatively determine if racemization would impact our experiments using the enantiomers, we performed a functional assessment of this property in our standard experimental solution. […] Both enantiomers of EU1794-4 inhibited NMDAR responses, but with different potencies (Figure 8—figure supplement 1C, Supplementary File 2). […] All enantiomer studies, other than the racemization time-course, were performed rapidly to minimize any racemization, being completed in less than 80 min after making the aqueous solution of modulator.
Figure 8. The enantiomers of EU1794-4 and EU1794-27 have different action. […] (C) Single concentration competition experiments illustrating an interaction between both enantiomers of EU1794-4 (+and -) and the positive modulating enantiomer of EU1794-27 (-) at GluN1/GluN2D. […] Figure 8—figure supplement 1. […]

[3] = glutamate/glycine 100/30 µM, no second modulator (+EU1794-27 0 µM), read-out: IC50 (µM) [conf. int.]
[4] = saturating glutamate/glycine 100/30 µM, mean [95% CI], read-out: EC50 (µM) [conf. int.]
[5] = saturating glutamate/glycine 100/30 µM, mean ± SEM
[6] = sub-saturating glutamate/glycine 0.6/0.2 µM, read-out: EC50 (µM) [conf. int.]
[7] = sub-saturating glutamate/glycine 0.6/0.2 µM

Sequence of GluN1/GluN2D NMDARs (Q62645 28-1323, other chains not shown): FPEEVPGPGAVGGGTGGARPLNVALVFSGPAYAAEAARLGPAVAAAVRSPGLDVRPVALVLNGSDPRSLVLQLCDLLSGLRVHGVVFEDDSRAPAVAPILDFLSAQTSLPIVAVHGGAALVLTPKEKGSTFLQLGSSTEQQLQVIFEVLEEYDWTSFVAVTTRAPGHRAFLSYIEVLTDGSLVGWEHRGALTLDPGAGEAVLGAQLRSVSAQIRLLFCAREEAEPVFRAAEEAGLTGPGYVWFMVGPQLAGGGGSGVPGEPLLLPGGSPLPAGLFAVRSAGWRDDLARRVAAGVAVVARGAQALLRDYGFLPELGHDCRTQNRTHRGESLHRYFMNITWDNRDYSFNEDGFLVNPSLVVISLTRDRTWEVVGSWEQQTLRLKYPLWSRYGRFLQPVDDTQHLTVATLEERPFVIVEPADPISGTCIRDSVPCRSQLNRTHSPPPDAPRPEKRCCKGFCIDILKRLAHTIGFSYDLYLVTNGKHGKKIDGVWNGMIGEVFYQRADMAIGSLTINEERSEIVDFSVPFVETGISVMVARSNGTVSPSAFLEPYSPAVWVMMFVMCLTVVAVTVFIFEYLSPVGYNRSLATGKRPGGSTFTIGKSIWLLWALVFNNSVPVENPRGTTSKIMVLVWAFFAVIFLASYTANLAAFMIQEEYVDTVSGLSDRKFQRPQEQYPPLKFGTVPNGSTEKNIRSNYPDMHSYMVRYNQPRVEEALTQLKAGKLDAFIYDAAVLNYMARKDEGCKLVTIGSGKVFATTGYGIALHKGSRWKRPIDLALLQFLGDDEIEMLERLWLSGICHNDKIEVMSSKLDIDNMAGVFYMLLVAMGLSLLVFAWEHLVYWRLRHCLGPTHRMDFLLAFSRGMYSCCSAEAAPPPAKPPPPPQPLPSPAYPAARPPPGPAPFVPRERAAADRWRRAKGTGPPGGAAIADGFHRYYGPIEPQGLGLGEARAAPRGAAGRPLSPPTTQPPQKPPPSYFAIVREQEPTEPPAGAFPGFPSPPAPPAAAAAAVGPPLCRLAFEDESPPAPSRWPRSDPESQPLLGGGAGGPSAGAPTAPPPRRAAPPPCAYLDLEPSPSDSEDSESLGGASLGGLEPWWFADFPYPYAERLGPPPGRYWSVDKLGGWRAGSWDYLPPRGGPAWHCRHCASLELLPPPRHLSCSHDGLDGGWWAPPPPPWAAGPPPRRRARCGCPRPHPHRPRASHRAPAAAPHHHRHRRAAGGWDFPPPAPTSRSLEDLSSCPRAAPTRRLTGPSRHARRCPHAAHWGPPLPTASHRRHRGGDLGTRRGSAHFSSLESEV

| IC50 ([1]; +EU1794-27 3 µM, glutamate/glycine 100/30 µM, read-out: EU1794-2 IC50 (µM) [conf. int.]) [µM] | IC50 ([1]; +EU1794-27 10 µM, glutamate/glycine 100/30 µM, read-out: EU1794-2 IC50 (µM) [conf. int.]) [µM] | IC50 ([1]; +EU1794-27 20 µM, glutamate/glycine 100/30 µM, read-out: EU1794-2 IC50 (µM) [conf. int.]) [µM] | IC50 [1, 3] [µM] | EC50 [1, 4] [µM] | Emax [1, 5] [%] | EC50 [1, 6] [µM] | Emax [1, 7] [%] | half-life at 10 µM [2] [h] | EC50 ([1]; +EU1794-2 1 µM, glutamate/glycine 100/30 µM, read-out: EU1794-27 EC50 (µM) [conf. int.]) [µM] | EC50 ([1]; +EU1794-2 3 µM, glutamate/glycine 100/30 µM, read-out: EU1794-27 EC50 (µM) [conf. int.]) [µM] | Fold Difference (glutamate EC50) ([1]; control vs 10 µM EU1794-27) | Fold Difference (glycine EC50) ([1]; control vs 10 µM EU1794-27) | melting point | Fold Difference (glutamate EC50) ([1]; control vs 10 µM EU1794-4) | Fold Difference (glycine EC50) ([1]; control vs 10 µM EU1794-4) | EC50 ([1]; sub-saturating glutamate/glycine 0.3/0.09 µM, read-out: EC50 (µM) [conf. int.]) [µM] | Emax ([1]; sub-saturating glutamate/glycine 0.3/0.09 µM) [%] | SMILES |
| --- | --- | --- | --- | --- | --- | --- | --- | --- | --- | --- | --- | --- | --- | --- | --- | --- | --- | --- |
| 1.4 | 2.7 | 7.3 | 0.2 | 0.2 | 14 | 0.32 | 24 | – | – | – | – | – | – | – | – | – | – | CCOC(=O)c1c(NC(=O)CC2SC(=N)NC2=O)sc2c1CCC(C)C2 (centres unmarked) [EU1794-2, ethyl 2-(2-(2-imino-4-oxothiazolidin-5-yl)acetamido)-6-methyl-4,5,6,7-tetrahydrobenzo[b]thiophene-3-carboxylate] |
| – | – | – | – | 2.4 | 250 | 8.3 | 580 | 3.28 | 7.5 | 7.8 | 5.3^† | 4.9^† | – | – | – | – | – | CC(C)(C)OC(=O)c1c(NC(=O)CC2SC(=N)NC2=O)sc2c1CCCC2 (centres unmarked) [EU1794-27, tert-butyl 2-(2-(2-imino-4-oxothiazolidin-5-yl)acetamido)-4,5,6,7-tetrahydrobenzo[b]thiophene-3-carboxylate] |
| – | – | – | 0.36 | 0.36 | 51 | – | – | 3.27 | – | – | – | – | 163 °C (dec.) | 3.9^† | 8.9^† | 14 | 540 | CCOC(=O)c1c(NC(=O)CC2SC(=N)NC2=O)sc2c1CCCC2 (centres unmarked) [EU1794-4, ethyl 2-(2-(2-imino-4-oxothiazolidin-5-yl)acetamido)-4,5,6,7-tetrahydrobenzo[b]thiophene-3-carboxylate] |

— PMC5967867, “An NMDAR positive and negative allosteric modulator series share a binding site and are interconverted by methyl groups” (eLife, 2018)
